Series [1] has as its target T1, PaDXPS (Pseudomonas aeruginosa, UniProt Q9KGU7).
T1 construct: made in house
Kind of series: DXPS-IspC coupled assay, PaDXPS. It is filed as biochemical. As for the experimental part: Inhibitory activity of compounds against DXPS were monitored via a continuous spectrophotometric coupled assay with DXPS and IspC as previously described.[41],[42] Briefly, Reaction mixtures containing HEPES (100 mM, pH 8.0), MgCl2 (2 mM), NaCl (5 mM), ThDP (1 mM), BSA (1 mg/mL), DXPS (125–500 nM), IspC (1.7 μM), NADPH (160 μM), DMSO (5%, v/v), and inhibitor (0–200 μM) were preincubated at 25 °C (or chamber temperature 25–30 °C) for 5 min. Enzymatic reactions were initiated via the addition of 20 μL of a 10x substrate mix for a final well volume of 200 μL. Reactions were performed in triplicate unless otherwise noted. See the following sections for details and modifications.
When varying pyruvate (0–500 μM), GAP was maintained at 50 μM (3 mM for R478A). When varying GAP (0–500 μM), pyruvate was maintained at 500 μM. The following [DXPS] were used when varying 1: WT EcDXPS, R478A, H431A, D427A (200 nM), R99A (500 nM), WT DrDXPS, WT PaDXPS (150 nM). Analogs 3 and 4 were tested using WT EcDXPS (150 nM). Reactions were incubated and initiated as described above. Immediately following initiation, NADPH depletion was monitored at 340 nm at 25 °C for 7–10 min with a 14–20 second time interval. Initial velocities of DXP formation were determined from the linear portion of the NADPH decay. Initial velocities were arithmetically corrected for background for compound 4. Initial velocities were plotted vs. substrate concentration, and the data were fit to equation 1 (mixed model), 2 (competitive), or 3 (uncompetitive) based on the calculated α value and goodness of fit in GraphPad Prism. Reported standard errors of the mean for Kis are calculated from three replicates.

Series [2] can be described thus: Steady state CV, gold ultramicroelectrode. It is filed as physicochemical. The settings on record: Tris pH 8, prepared aerobically then deoxygenated, gold UME. The source says:
To provide additional evidence for DXPS-dependent reduction of 1, we used electrochemistry to continuously monitor the redox state of 1 during the course of a DXPS reaction. For these experiments, we used a gold ultramicroelectrode, which allowed us to observe the steady-state current corresponding to the reduction of 1, under diffusion control, during the progression of the reaction. […] Using Equation 4 (Electrochemical Measurements, Materials and Methods), it was estimated that the observed pseudo steady state current at −0.50 V corresponded to a one-electron transfer reaction. We used this voltage to interrogate the reduction of 1 during reaction with enzyme and substrates. […] Reactions were initiated in the cell via addition of different combinations of DXPS and substrates which were previously deoxygenated in an anaerobic chamber (Fig 9, S26). […] Returning to the CV, when measured after the chemical reaction transpires, the reduction peak nearly vanished as expected (Fig 9, S28).
Reaction solutions were prepared containing 2 mM MgCl2, 100 mM NaCl, 50 mM Tris pH 8, 1 mM ThDP, and 1 (final 1 mM) under aerobic conditions to allow for oxidation of 1. […] Reactions were initiated and mixed via gas tight Hamilton syringe at ~300 s and measured for at least 200 s. […]

For series [3], the target named is T2, EcDXPS (Escherichia coli, UniProt P77488).
T2 construct: made in house
The series can be described thus: Inhibition in the presence of CAT or ascorbate. Type of series: biochemical, E. coli. As for the experimental part: Given that CAT prevents nonenzymatic oxidative decarboxylation of pyruvate (Fig S8, S12), but influences the redox state of 1, we evaluated the inhibitory activity of 1 in the presence of CAT (Fig 6). […] In this experiment, 1 was incubated at 25 °C for 5 min in the presence of DXPS, IspC, and either CAT or ascorbate prior to initiation by addition of pyruvate and D-GAP. […] In the presence of ascorbate, 1 is primarily in the reduced form according to NMR (Fig S10).
Reaction solutions were prepared containing EcDXPS (150 nM). Solutions contained either DXPS alone or were supplemented with CAT (0.25 mg/mL) or ascorbate (5 mM). Reaction mixtures were incubated with either water or 1 (100 μM) for 5 min at 25 °C. Reactions were initiated with a mixture of pyruvate (110 μM) and GAP (60 μM), or water for background controls. Immediately following initiation, NADPH depletion was monitored at 340 nm at 25 °C for 7.5 min with a 14 second time interval. Initial velocities of DXP formation were measured as described above and arithmetically corrected for background rates and normalized to the DXPS only control reaction for comparison. Reactions were performed in triplicate, and % inhibition was determined arithmetically from initial velocities. Reported standard errors of the mean for Kis are calculated from three replicates.

Read-outs that look alike come from different tables or passages of the source.

Usually Ki stands for the equilibrium dissociation constant of an inhibitor or competing ligand from its target. A higher Ki goes with a looser hold on the target. In turn, `ON=Cc1cc(O)c(O)cc1O` [compound 1, 2,4,5-trihydroxybenzaldoxime] showed a Ki in series [1] of 16.4 ± 2.2 µM. Moreover, in series [1] (PaDXPS), the “MOI varying D-GAP” value is “competitive”. In addition, the MOI varying pyruvate result in series [1] (PaDXPS) is given as “uncompetitive”. Also, the “Ki/Ki^EcDXPS” value in series [1] (PaDXPS, vary pyruvate, fold reduction in potency) is 3.5. Moreover, in series [2], the “reduction half-height potential (steady state CV)” value is given as ~ −0.35 V. Besides, the inhibition at 100 µM in series [3] (read-out: %Inhibition at 100 μM 1, Ascorbate 5 mM, aerobic, 100 μM) turned out to be 23%; in series [3] (read-out: %Inhibition at 100 μM 1, CAT 0.25 mg/mL, aerobic, 100 μM), 80%; in series [3] (read-out: %Inhibition at 100 μM 1, Control (DXPS alone), aerobic, 100 μM) it was 80 ± 0.5%.

(Values after article doi:10.1101/2025.03.03.641193, “Trihydroxybenzaldoximes are redox cycling inhibitors of ThDP-dependent DXP synthase” (bioRxiv, 2025).)
